Data reported in patent US8642633B2, “Di-substituted amides for enhancing glutamatergic synaptic responses” (Cortex Pharmaceutical, Inc., priority 2007, dated 2014).

How the values were obtained:
[1] = test system: AMPA receptor; test: In vivo electrophysiology: field EPSP amplitude in the dentate gyrus of anesthetized animals; design: species or system rat
Procedure: A. Enhancement of AMPA Receptor Function In Vivo.
Synaptic responses mediated by AMPA receptors are increased according to the method of the invention, using the compounds described herein.
(§1) The electrophysiological effects of the invention compounds were tested in vivo in anesthetized animals according to the following procedures. Animals are maintained under anesthesia by phenobarbital administered using a Hamilton syringe pump. Stimulating and recording electrodes are inserted into the perforant path and dentate gyrus of the hippocampus, respectively. Once electrodes are implanted, a stable baseline of evoked responses are elicited using single monophasic pulses (100 μs pulse duration) delivered at 3/min to the stimulating electrode. Field EPSPs are monitored until a stable baseline is achieved (about 20-30 min), after which a solution of test compound is injected intraperitoneally and evoked field potentials are recorded. Evoked potentials were recorded for approximately 2 h following drug administration or until the amplitude of the field EPSP returns to baseline. In the latter instance, it is common that an iv administration is also carried out with an appropriate dose of the same test compound. Invention compounds were assayed in the in vivo electrophysiology assay described above and data for representative test compounds is shown in column 1 in Table 1.
The electrophysiological effects of invention compounds were tested in vivo in anesthetized animals according to the following procedures.
as §1, with “Animals” for “The electrophysiological effects of the invention compounds were tested in vivo in anesthetized animals according to the following procedures. Animals”, “are” for “were”, “compound.” for “compound. Invention compounds were assayed in the in vivo electrophysiology assay described above and data for representative test compounds is shown in column 1 in Table 1.”

[2] = test system: d-amphetamine stimulated locomotion in mice; test: Inhibition of d-amphetamine stimulated locomotion; type: in vivo; conditions: Mus musculus, ip, 18 mpk i.p., d-amphetamine 2 mg/kg
Procedure: B. Behavioral Testing: Inhibition of d-Amphetamine Stimulated Locomotion
The ability of the invention compounds to inhibit d-Amphetamine stimulated locomotor activity was assayed according to the following procedure. Male CD1 mice, 25-30 gm body weight, were brought into the experimental room and allowed at least 30 min of acclimation. Each mouse was placed into the testing enclosure with an infrared beam array that automatically monitors the animal's activity. Mice were habituated in the testing enclosure for 20 min, and then returned to their home cage. Mice were dosed intraperitoneally with test compound in appropriate vehicle 5 minutes before d-Amphetamine injection (2 mpk). Ten minutes after d-Amphetamine injection, mice were tested for locomotor activity for a total of […]. The data was computer collected and expressed as “arbitrary movement units.” All data were analyzed by comparing the groups treated with the test compound to the vehicle control group. The data shown is the % inhibition of hyperactivity induced by acute administration of 2 mg/kg d-amphetamine in mice. The compounds tested produced a statistically significant inhibition of d-amphetamine stimulated locomotion.
Male CD1 mice, 25-30 gm body weight, were brought into the experimental room and allowed at least 30 min of acclimation. Each mouse was placed into the testing enclosure with an infrared beam array that automatically monitors the animal's activity. Mice were habituated in the testing enclosure for 20 min, and then returned to their home cage. Mice were dosed intraperitoneally with test compound in appropriate vehicle 5 minutes before d-Amphetamine injection. Ten minutes after d-Amphetamine injection, mice were tested for locomotor activity for a total of 15 minutes. The data was computer collected and expressed as “arbitrary movement units.” All data were analyzed by comparing the groups treated with the test compound to the vehicle control group.

[3] = dosed intravenously (footnote 3)

Row | melting point [°C] | SMILES | In vivo Electrophysiology: % increase in the amplitude of the field EPSP in the dentate gyrus of rat ([1]; 10mpk i.p.) [%] | further results
1 | – | CN(C(=O)c1ccc2nonc2c1)[C@@H]1CCOC1 [Example 73, N-Methyl-N—(R)-tetrahydrofuran-3-yl-[2,1,3]-benzoxadiazole-5-carboxamide] | 13 | –
2 | 110 to 111 | CN(C(=O)c1ccc2nonc2c1)C1CCCC1 [Example 5, N-Cyclopentyl-N-methyl-[2,1,3]-benzoxadiazole-5-carboxamide] | 15 | –
3 | – | CN(C(=O)c1ccc2nonc2c1)C1CCSCC1 [Example 33, N-Methyl-N-(tetrahydro-2H-thiopyran-4-yl)-[2,1,3]-benzoxadiazole-5-carboxamide] | – | In vivo Electrophysiology: % increase in the amplitude of the field EPSP in the dentate gyrus of rat [1, 3]: 16%^3
4 | 222 to 223 | CN(C(=O)c1ccc2nonc2c1)[C@H]1CC[C@@H](C#N)CC1 [Example 10, N-(cis-4-Cyanocyclohexyl)-N-methyl-[2,1,3]-benzoxadiazole-5-carboxamide] | – | –
5 | – | CN(C(=O)c1ccc2nonc2c1)[C@H]1CC[C@H](O)CC1 [Example 51, N-(4-trans-Hydroxycyclohexyl)-N-methyl-[2,1,3]-benzoxadiazole-5-carboxamide] | 21 | inhibition in vivo at 18 mg/kg [2]: 100%
6 | – | CO[C@H]1CC[C@H](N(C)C(=S)c2ccc3nonc3c2)CC1 [Example 54, N-(trans-4-Methoxycyclohexyl)-N-methyl-[2,1,3]-benzoxadiazole-5-carbothioamide] | – | In vivo Electrophysiology: % increase in the amplitude of the field EPSP in the dentate gyrus of rat [1, 3]: 18%^3
7 | 134 to 135 | O=C(c1ccc2nonc2c1)N(CC(F)(F)F)C1CCOCC1 [Example 25, N-Tetrahydro-2H-pyran-4-yl-N-(2,2,2-trifluoroethyl)-[2,1,3]-benzoxadiazole-5-carboxamide] | – | In vivo Electrophysiology: % increase in the amplitude of the field EPSP in the dentate gyrus of rat [1, 3]: 10%^3
8 | 91 to 92 | O=C(NC1CCOC(O)C1)c1ccc2nonc2c1 (stereo not shown) [Example 66, N-(2-Hydroxytetrahydro-2H-pyran-4-yl)-[2,1,3]-benzoxadiazole-5-carboxamide] | – | –
9 | 130 to 131 | CN(C(=O)c1ccc2nccnc2c1)C1CCOCC1 [Example 36, N-Methyl-N-tetrahydro-2H-pyran-4-ylquinoxaline-6-carboxamide] | – | In vivo Electrophysiology: % increase in the amplitude of the field EPSP in the dentate gyrus of rat [1, 3]: 5%^3
10 | 137 to 138 | CN(C(=O)c1ccc2nonc2c1)C1CCC(F)(F)CC1 [Example 40, N-(4,4-Difluorocyclohexyl)-N-methyl-[2,1,3]-benzoxadiazole-5-carboxamide] | 18 | inhibition in vivo at 18 mg/kg [2]: 84%
11 | 183 to 184 | CN(C(=O)c1ccc2nonc2c1)C1CCC(=O)CC1 [Example 37, N-Methyl-N-(4-oxocyclohexyl)-[2,1,3]-benzoxadiazole-5-carboxamide] | 18 | inhibition in vivo at 18 mg/kg [2]: 100%
12 | 175 to 176 | CN(C(=O)c1ccc2nonc2c1)[C@H]1CC[C@](C)(O)CC1 [Example 45, N-(trans-4-hydroxy-4-methylcyclohexyl)-N-methyl-[2,1,3]-benzoxadiazole-5-carboxamide] | 19 | inhibition in vivo at 18 mg/kg [2]: 122%
13 | 134 to 135 | CN(C(=O)c1ccc2nonc2c1)C1CCCCC1 [Example 4, N-Cyclohexyl-N-methyl-[2,1,3]-benzoxadiazole-5-carboxamide] | 17 | inhibition in vivo at 18 mg/kg [2]: 80%
14 | – | O=C(c1ccc2nccnc2c1)N1CCCCC1 [CX516, 1-(quinoxalin-6-ylcarbonyl)piperidine, reference compound] | – | increase in amplitude of the field EPSP ([1]; rat dentate gyrus, 50 mg/kg i.p.): 9%
15 | 108 to 109 | O=C(c1ccc2nonc2c1)N(C1CCOCC1)C1CC1 [Example 24, N-Cyclopropyl-N-tetrahydro-2H-pyran-4-yl-[2,1,3]-benzoxadiazole-5-carboxamide] | – | –
16 | 169 to 171 | CN(C(=O)c1ccc2nonc2c1)C1CCOC(=O)C1 (stereo not shown) [Example 68, N-Methyl-N-(2-oxotetrahydro-2H-pyran-4-yl)-[2,1,3]-benzoxadiazole-5-carboxamide] | – | –
17 | 117 to 118 | CN(C(=O)c1ccc2nonc2c1)C1CC=C(F)CC1 (stereo not shown) [Example 41, N-(4-fluorocyclohex-3-en-1-yl)-N-methyl-[2,1,3]-benzoxadiazole-5-carboxamide] | 18 | inhibition in vivo at 18 mg/kg [2]: 67%
18 | – | CN(C(=O)c1ccc2nonc2c1)[C@H]1CC[C@H](C#N)CC1 [Example 11, N-(trans-4-cyanocyclohexyl)-N-methyl-[2,1,3]-benzoxadiazole-5-carboxamide] | 12 | –
19 | 51 to 52 | CCN(C(=O)c1ccc2nonc2c1)C1CCCCC1 [Example 18, N-Cyclohexyl-N-ethyl-[2,1,3]-benzoxadiazole-5-carboxamide] | – | –
20 | 105 to 106 | CN(Cc1ccccc1)C(=O)c1ccc2nonc2c1 [Example 20, N-Benzyl-N-methyl-[2,1,3]-benzoxadiazole-5-carboxamide] | – | –
21 | < 90 | CN(C(=O)c1ccc2nonc2c1)C1CCOC(O)C1 (stereo not shown) [Example 69, N-(2-Hydroxytetrahydro-2H-pyran-4-yl)-N-methyl-[2,1,3]-benzoxadiazole-5-carboxamide] | – | –
22 | 98 to 100 | CN(C(=O)c1ccc2nonc2c1)C1CCN(C(=O)OC(C)(C)C)CC1 [Example 26, tert-Butyl-4-[([2,1,3]-benzoxadiazol-5-ylcarbonyl)(methyl)amino]piperidine-1-carboxylate] | – | –
23 | > 260 | CN1CCC(N(C)C(=O)c2ccc3nonc3c2)CC1 [Example 28, N-Methyl-N-(1-methylpiperidin-4-yl)-[2,1,3]-benzoxadiazole-5-carboxamide] | – | –
24 | – | CN(C(=O)c1ccc2nonc2c1)C1CCOCC1 [Example 12, N-Methyl-N-tetrahydro-2H-pyran-4-yl-[2,1,3]-benzoxadiazole-5-carboxamide] | 20 | inhibition in vivo at 18 mg/kg [2]: 66%
25 | 119 to 120 | CN(C(=O)c1ccc2nonc2c1)C1CCCC(F)(F)C1 (stereo not shown) [Example 62, N-Methyl-N-(3,3-difluorocyclohexyl)-[2,1,3]-benzoxadiazole-5-carboxamide] | – | –
26 | 204 to 205 | O=C(NC1CCCOC1)c1ccc2nonc2c1 (stereo not shown) [Example 15, N-(Tetrahydro-2H-pyran-3-yl)-[2,1,3]-benzoxadiazole-5-carboxamide] | – | –
27 | – | CO[C@H]1CC[C@H](N(C)C(=O)c2ccc3nonc3c2)CC1 [Example 53, N-(trans-4-Methoxycyclohexyl)-N-methyl-[2,1,3]-benzoxadiazole-5-carboxamide] | 17 | inhibition in vivo at 18 mg/kg [2]: 94%
28 | – | CN(C(=O)c1ccc2nonc2c1)[C@H]1CC[C@H](n2ncnn2)CC1 [Example 56, N-Methyl-N-[trans-4-(2H-tetrazol-2-yl)cyclohexyl]-[2,1,3]-benzoxadiazole-5-carboxamide] | 19 | –
29 | 101 to 102 | CN(C(=O)c1ccc2nonc2c1)C1CCCCC1(F)F (stereo not shown) [Example 65, N-Methyl-N-(2,2-difluorocyclohexyl)-[2,1,3]-benzoxadiazole-5-carboxamide] | – | –
30 | 71 to 72 | CN(CC1CCCCC1)C(=O)c1ccc2nonc2c1 [Example 19, N-(Cyclohexylmethyl)-N-methyl-[2,1,3]-benzoxadiazole-5-carboxamide] | – | –
